# Laboratory results from the Kinase Knowledgebase extract (Sharma et al. 2016).
# Where “and” joins values, the source holds several entries; their conditions need not be identical. Equal values may be shown once.
# Target: PIK3CD (Human) (UniProt O00329)
# Experiment: Enzyme Assay
# PIK3CD (Human), sequence (O00329 whole entry, looked up): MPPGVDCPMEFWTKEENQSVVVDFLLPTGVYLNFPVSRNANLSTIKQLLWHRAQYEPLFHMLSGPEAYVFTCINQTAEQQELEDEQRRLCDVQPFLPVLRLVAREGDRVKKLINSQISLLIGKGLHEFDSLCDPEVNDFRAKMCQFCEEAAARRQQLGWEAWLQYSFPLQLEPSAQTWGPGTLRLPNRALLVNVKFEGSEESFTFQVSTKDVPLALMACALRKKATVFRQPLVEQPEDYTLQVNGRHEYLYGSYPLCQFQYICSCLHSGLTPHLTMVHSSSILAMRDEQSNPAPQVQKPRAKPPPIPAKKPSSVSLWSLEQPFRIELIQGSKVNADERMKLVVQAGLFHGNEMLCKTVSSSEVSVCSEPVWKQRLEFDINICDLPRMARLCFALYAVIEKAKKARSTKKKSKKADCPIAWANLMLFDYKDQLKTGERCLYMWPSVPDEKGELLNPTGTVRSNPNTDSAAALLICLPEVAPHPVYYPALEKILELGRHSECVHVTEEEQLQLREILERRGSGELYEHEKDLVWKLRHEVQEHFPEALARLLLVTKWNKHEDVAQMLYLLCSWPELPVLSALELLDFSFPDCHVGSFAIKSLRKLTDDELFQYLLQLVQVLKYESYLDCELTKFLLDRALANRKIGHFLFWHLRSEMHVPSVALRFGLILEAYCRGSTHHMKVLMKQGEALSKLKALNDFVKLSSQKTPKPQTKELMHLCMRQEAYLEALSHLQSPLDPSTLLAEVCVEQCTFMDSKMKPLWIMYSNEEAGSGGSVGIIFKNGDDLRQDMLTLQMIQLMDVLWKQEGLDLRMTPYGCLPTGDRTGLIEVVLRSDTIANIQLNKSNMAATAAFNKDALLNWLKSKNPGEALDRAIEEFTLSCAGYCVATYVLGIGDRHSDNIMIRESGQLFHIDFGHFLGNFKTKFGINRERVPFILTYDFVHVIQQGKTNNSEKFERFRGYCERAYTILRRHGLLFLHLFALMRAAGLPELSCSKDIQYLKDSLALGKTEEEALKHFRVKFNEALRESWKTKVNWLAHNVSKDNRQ
row,SMILES,IC50
1,CCC(=O)N1CC[C@H](Oc2ncnc3c2nc(-c2cnc(C(C)(C)C)s2)n3CC)C1,2.2 nM
2,CCn1c(-c2cnc(OC)c(F)c2)nc2c(O[C@H]3CCN(C(=O)C4CC(F)(F)C4)C3)ncnc21,< 1 nM
3,CCn1ncc(-c2nc3c(O[C@H]4CCN(C(=O)C5CCOC(C)(C)C5)C4)ncnc3n2C)c1C (stereo partly specified),1.2 nM
4,CCn1ncc(-c2nc3c(O[C@H]4CCN(C(=O)c5c(C)noc5C)C4)ncnc3n2C)c1C,88 nM
5,CCc1nc(C)c(C(=O)N2CC[C@H](Oc3ncnc4c3nc(-c3cnn(CC)c3C)n4C)C2)o1,12 nM
6,CCn1c(-c2cnc(C)nc2)nc2c(O[C@@H]3CCN(C(=O)N4CC(F)(F)C4)C3)ncnc21,5.9 nM
7,CCn1ncc(-c2nc3c(O[C@H]4CCN(C(=O)c5cn(C)nc5C(F)(F)F)C4)ncnc3n2C)c1C,68 nM
8,CCn1ncc(-c2nc3c(O[C@H]4CCN(C(=O)c5cc6n(n5)CCC6)C4)ncnc3n2C)c1C,76 nM
9,CCn1ncc(-c2nc3c(O[C@H]4CCN(C(=O)c5c[nH]nc5C(F)(F)F)C4)ncnc3n2C)c1C,21 nM
10,CCn1ncc(-c2nc3c(O[C@@H]4CC[C@H](NC(=O)C5CCOCC5)C4)ncnc3n2C)c1C,290 nM
11,Cc1ncc(-c2nc3c(O[C@H]4CCN(C(=O)OC(C)(C)C)C4)ncnc3n2C)n1C,28 nM
12,CCC(=O)N1CC[C@H](Oc2ncnc3c2nc(-c2cncc(N)c2)n3C)C1,5.7 nM
13,CCn1c(C(=O)NCC(F)(F)F)nc2c(O[C@H]3CCC(C(=O)N4CC(OC)C4)C3)ncnc21 (stereo partly specified),9.9 nM
14,CC(=O)Nc1ccc(-c2nc3c(O[C@H]4CCN(C(=O)OC(C)(C)C)C4)ncnc3n2C)cc1,140 nM
15,CCC(=O)N1CC[C@H](Oc2ncnc3c2nc(-c2ccc4cn[nH]c4c2)n3C)C1,7.2 nM
16,CCC(=O)N1CC[C@H](Oc2ncnc3c2nc(-c2cnn(CC)c2C)n3CC)C1,0.6 nM
17,CCn1ncc(-c2nc3c(O[C@H]4CCN(C(=O)c5[nH]ncc5C)C4)ncnc3n2C)c1C,3.6 nM
18,CCn1c(-c2cnc(N)c(C(F)(F)F)c2)nc2c(O[C@H]3CCN(C(=O)C4CC4)C3)ncnc21,1.1 nM
19,CC[C@@H]1CN(C(=O)C2CC2)C[C@H]1Oc1ncnc2c1nc(-c1cnc(C)nc1)n2CC.CC[C@H]1CN(C(=O)C2CC2)C[C@@H]1Oc1ncnc2c1nc(-c1cnc(C)nc1)n2CC,6.1 nM and 20 nM
20,CCn1c(-c2cnc(C)nc2)nc2c(OC3CN(C(=O)C4CC4)CC3C)ncnc21 (stereo unspecified),2.9 nM
21,CCn1ncc(-c2nc3c(O[C@H]4CCN(c5ncnc6sc(C)cc56)C4)ncnc3n2C)c1C,5.2 nM
22,CCn1c(-c2cnc(OC)c(C(F)(F)F)c2)nc2c(O[C@H]3CCN(C(=O)C4CC4)C3)ncnc21,< 1 nM
23,CCn1ncc(-c2nc3c(O[C@H]4CCN(C(=O)c5coc(C)n5)C4)ncnc3n2C)c1C,6.5 nM

row,SMILES,IC50
1,CCn1ncc(-c2nc3c(O[C@H]4CCN(C(=O)c5cnoc5C)C4)ncnc3n2C)c1C,36 nM
2,CCn1ncc(-c2nc3c(O[C@H]4CCN(C(=O)Oc5ccc(OC)cc5)C4)ncnc3n2C)c1C,65 nM
3,Cc1cc2cccc(-c3nc4c(O[C@H]5CCN(C(=O)OC(C)(C)C)C5)ncnc4n3C)c2[nH]1,660 nM
4,CCC(=O)N1CC[C@H](Oc2ncnc3c2nc(-c2ccc4cc[nH]c4c2)n3C)C1,120 nM
5,CCn1ncc(-c2nc3c(O[C@H]4CCN(C(=O)Oc5ccccc5)C4)ncnc3n2C)c1C,90 nM
6,CCn1ncc(-c2nc3c(O[C@@H]4CC[C@H](n5c(=O)[nH]c6ncccc65)C4)ncnc3n2C)c1C,120 nM
7,CCn1c(-c2cnc(C)nc2)nc2c(O[C@H]3CCN(C(=O)c4ccn(C)n4)C3)ncnc21,3 nM
8,CCn1c(N(C)CCO)nc2c(O[C@H]3CCN(C(=O)OC(C)(C)C)C3)ncnc21,830 nM
9,CCn1c(-c2cnc(C)nc2)nc2c(O[C@H]3CCN(C(=O)N4CC5CC5C4)C3)ncnc21 (stereo partly specified),5.7 nM
10,CCCn1c(-c2cnc(C)nc2)nc2c(O[C@H]3CCN(C(=O)CC)C3)ncnc21,130 nM
11,CCn1c(-c2cnc(C)nc2)nc2c(O[C@H]3CCN(C(=O)c4cocn4)C3)ncnc21,14 nM
12,CCC(=O)N1CC[C@H](Oc2ncnc3c2nc(-c2ccc4[nH]ncc4c2)n3C)C1,44 nM
13,CCn1ncc(-c2nc3c(O[C@H]4CCN(c5cc(-n6cc(C)cn6)ncn5)C4)ncnc3n2C)c1C,160 nM
14,CCn1ncc(-c2nc3c(O[C@@H]4CCN(C(=O)C5CCOCC5)C4)ncnc3n2C)c1C,1600 nM
15,CCn1ncc(-c2nc3c(O[C@H]4CCN(C(=O)Oc5cccc(C(F)(F)F)c5)C4)ncnc3n2C)c1C,300 nM
16,CCn1c(-c2cnc(C)nc2)nc2c(O[C@H]3CN(C(=O)C4CC4)C[C@@H]3O)ncnc21,17 nM
17,CCC(=O)N1CC[C@H](Oc2ncnc3c2nc(-c2cnc(C)nc2)n3C)C1,36 nM
18,CCC(=O)N1CC[C@H](Oc2ncnc3c2nc(Oc2ccc(OC)c(F)c2)n3C)C1,120 nM
19,CCn1c(-c2ccc(OC)c(F)c2)nc2c(O[C@H]3CCN(C(=O)C4CC4)C3)ncnc21,2.2 nM
20,CCn1c(-c2ccc(OC)nc2)nc2c(O[C@H]3CCN(C(=O)C4CCOCC4)C3)ncnc21,1.6 nM
21,Cn1c(-c2cnn3cccnc23)nc2c(O[C@H]3CCN(C(=O)OC(C)(C)C)C3)ncnc21,210 nM
22,CCn1ncc(-c2nc3c(O[C@H]4CCN(C(=O)c5cnn6ccccc56)C4)ncnc3n2C)c1C,130 nM
23,CCn1c(N2CCC(S(C)(=O)=O)C2)nc2c(O[C@H]3CCN(C(=O)OC(C)(C)C)C3)ncnc21 (stereo partly specified),700 nM

row,SMILES,IC50
1,CCn1ncc(-c2nc3c(O[C@H]4CCN(C(=O)CN5CCCC5=O)C4)ncnc3n2C)c1C,480 nM
2,CCn1ncc(-c2nc3c(O[C@H]4CCN(C(=O)c5cc(C(C)(C)C)nn5C)C4)ncnc3n2C)c1C,150 nM
3,CCn1c(-c2cnc(C)nc2)nc2c(OC3CN(Cc4ccccc4)CC3(C)C)ncnc21 (stereo unspecified),28 nM
4,CCn1c(-c2cnc(OC)c(F)c2)nc2c(O[C@H]3CCN(C(=O)c4cncn4C)C3)ncnc21,1.5 nM
5,CCn1ncc(-c2nc3c(O[C@H]4CCN(C(=O)C(C)C)C4)ncnc3n2C)c1C,4 nM
6,Cn1c(-c2cn[nH]c2)nc2c(O[C@H]3CCN(C(=O)OC(C)(C)C)C3)ncnc21,28 nM
7,CCn1ncc(-c2nc3c(O[C@H]4CCN(C(=O)c5nnsc5C)C4)ncnc3n2C)c1C,5.3 nM
8,CCn1ncc(-c2nc3c(O[C@H]4CCN(C(=O)Oc5ccc6ccccc6c5)C4)ncnc3n2C)c1C,110 nM
9,CCn1c(-c2cnc(C)nc2)nc2c(O[C@H]3CCCN(c4ccccn4)C3)ncnc21,73 nM
10,CCn1c(-c2ccc(OC)nc2)nc2c(O[C@H]3CCN(C(=O)C4CC4)C3)ncnc21,1 nM
11,CCn1ncc(-c2nc3c(O[C@H]4CCN(C(=O)c5oncc5C)C4)ncnc3n2C)c1C,5.1 nM
12,CCC(=O)N1CC[C@H](Oc2ncnc3c2nc(-c2cnc(C)nc2)n3CC)C1,13 nM
13,CCn1ncc(-c2nc3c(O[C@H]4CCN(C(=O)NC5CCCCC5)C4)ncnc3n2C)c1C,230 nM
14,CCn1c(-c2cnc(C)nc2)nc2c(O[C@H]3CCN(C(=O)C4CC4C)C3)ncnc21 (stereo partly specified),1.5 nM
15,CCn1ncc(-c2nc3c(O[C@H]4CCN(C(=O)c5cnn(C(C)C)c5)C4)ncnc3n2C)c1C,30 nM
16,CCn1ncc(-c2nc3c(O[C@H]4CCN(c5nccc6sccc56)C4)ncnc3n2C)c1C,10 nM
17,CCn1c(-c2cnc(C)nc2)nc2c(O[C@H]3CCN(C(=O)N4CCC(C)(O)C4)C3)ncnc21 (stereo partly specified),7.3 nM
18,CCn1ncc(-c2nc3c(O[C@H]4CCN(c5ncnc6sc(C)c(C)c56)C4)ncnc3n2C)c1C,19 nM
19,CCn1ncc(-c2nc3c(S[C@H]4CCN(C(=O)OCC(C)C)C4)ncnc3n2C)c1C,30 nM
20,CCn1ncc(-c2nc3c(O[C@H]4CCN(c5ncnc6c5cnn6C)C4)ncnc3n2C)c1C,120 nM
21,CCn1c(-c2cnc(C)nc2)nc2c(O[C@H]3CCN(C(=O)C4CCOC4)C3)ncnc21 (stereo partly specified),5.8 nM
22,CCn1c(-c2cnc(C)nc2)nc2c(O[C@H]3CCN(C(=O)N(C)C4CC4)C3)ncnc21,28 nM
23,CCCn1c(-c2cnn(CC)c2C)nc2c(O[C@H]3CCN(C(=O)CC)C3)ncnc21,58 nM

row,SMILES,IC50
1,CCn1ncc(-c2nc3c(S[C@H]4CCN(C(=O)C5CC5)C4)ncnc3n2C)c1C,3.8 nM
2,CCC(=O)N1CCC(Oc2ncnc3c2nc(-c2cnn(CC)c2C)n3C)CC1,800 nM
3,CCn1ncc(-c2nc3c(OC4CCN(C(=O)c5ccccc5)CC4)ncnc3n2C)c1C,960 nM
4,CCn1c(-c2cnc(C)nc2)nc2c(O[C@H]3CCN(C(=O)OCCCN(C)C)C3)ncnc21,37 nM
5,CCC(=O)N1CC[C@H](Oc2ncnc3c2nc(-c2cnc(OC)c(C)c2)n3C)C1,2.1 nM
6,CCn1ncc(-c2nc3c(CC4CCN(C(=O)OC(C)(C)C)C4)ncnc3n2C)c1C (stereo unspecified),560 nM
7,CCn1ncc(-c2nc3c(OC4CCN(C(=O)C5CCCCC5)C4)ncnc3n2C)c1C (stereo unspecified),22 nM
8,CCn1c(-c2cnc(C)nc2)nc2c(O[C@H]3CCN(C(=O)N4CC(C)(OC)C4)C3)ncnc21,34 nM
9,CCn1ncc(-c2nc3c(O[C@H]4CCN(C(=O)OC(C)(C)C)C4)ncnc3n2C)c1C,4.3 nM
10,CCn1ncc(-c2nc3c(O[C@H]4CCN(C(=O)NC(C)(C)CC(C)(C)C)C4)ncnc3n2C)c1C,4.7 nM
11,CCn1c(-c2cnc(C)nc2)nc2c(O[C@H]3CCN(S(=O)(=O)CC)C3)ncnc21,170 nM
12,CCn1ncc(-c2nc3c(O[C@@H]4CCCN(C(=O)OC(C)(C)C)C4)ncnc3n2C)c1C,4600 nM
13,CCC(=O)N1CC[C@H](Oc2ncnc3c2nc(C2=CCOCC2)n3CC)C1,93 nM
14,CCNC(=O)c1nc2c(O[C@H]3CCN(C(=O)OC(C)(C)C)C3)ncnc2n1CC,310 nM
15,CCn1c(-c2cnc(C)nc2)nc2c(O[C@H]3CCN(c4cncnc4)C3)ncnc21,47 nM
16,CCn1ncc(-c2nc3c(O[C@H]4CCN(C(=O)OCC(C)(C)C)C4)ncnc3n2C)c1C,28 nM
17,CCn1c(-c2cnc(C)nc2)nc2c(O[C@H]3CCN(C(=O)N4CC(O)C4)C3)ncnc21,4.3 nM
18,CCn1ncc(-c2nc3c(O[C@H]4CCN(C(=O)c5nccn5C)C4)ncnc3n2C)c1C,35 nM
19,CCn1ncc(-c2nc3c(O[C@H]4CCN(C(=O)c5ccncc5)C4)ncnc3n2C)c1C,13 nM
20,CCc1oncc1C(=O)N1CC[C@H](Oc2ncnc3c2nc(-c2cnn(CC)c2C)n3C)C1,27 nM
21,CCn1c(-c2cnc(OC)c(F)c2)nc2c(O[C@H]3CCN(C(=O)C4CC4)C3)ncnc21,< 1 nM
22,CCn1ncc(-c2nc3c(O[C@H]4CCN(C(=O)N[C@H](C)c5ccccc5)C4)ncnc3n2C)c1C,630 nM
